Assay results: patent publication US4444778A, “Method and composition for treating atherosclerosis” (priority 1982, dated 1984)
Entries after “also recorded” stand apart in the source; their conditions may differ.

How the values were obtained:
[1] = tested on: aortic smooth muscle cell proliferation after vascular injury; assay: Specific activity of aortic smooth muscle cell DNA after balloon catheter vascular injury (Example 4, Table IV); format: in vivo, rat; design: Specific Activity for smooth muscle cell DNA, repeat test: concentration or dose not given beside the values; details: for Specific Activity for smooth muscle cell DNA, repeat test: untreated 100, vehicle 92, standard error (%) in own column; for inhibition of injury-induced smooth muscle cell proliferation: after experimental vascular injury, similar = as with methiothepin 10 mg/kg i.p.; for dose dependent Specific Activity, methiothepin: vehicle = 100
Procedure: Rat aortas are denuded of endothelium by passing a catheter with an inflated balloon at its tip down the length of the blood vessel. In animal models, this type of vascular injury has been shown by Goldberg, et al (Vascular Smooth Muscle Cell Kinetics: A New Assay For Studying Patterns of Cellular Proliferation In Vivo, Science, 205, 920-922, 1979), to stimulate formation of vascular lesions resembling those of human atherosclerosis 48 hours after injury. The rats are injected intravenously with ^3 H-thymidine, which is incorporated into the DNA of proliferating smooth muscle cells. After one hour, the specific activity of aortic smooth muscle cell DNA is determined and used as an index of smooth muscle cell proliferation in the injured vessel wall.

[2] = tested on: vascular lesions of the aorta after de-endothelialization; assay: Lesion area after aortic de-endothelialization (Example 5, Table V); format: in vivo, rat (male Sprague-Dawley); details: 25 mg/kg by gavage
Text: The use of serotonin antagonists in preventing or impeding arteriosclerotic lesion is indicated in vivo essentially in accordance with the de-endothelialization procedure of Tiell, et al (Influence of the Pituitary on Arterial Intima Proliferation in the Rat, Circulation Research, Vol. 42, No. 5, […], May 1978). Male Sprague-Dawley rats weighing 300-360 grams are fed a constant formula rodent lab chow and water ad libitum for two weeks prior to the start of the test. For two days before de-endothelialization and for the following 14 days until sacrifice, the animals receive either a placebo or 1 to 200 milligrams per kilogram per day of test compound. On the day of de-endothelialization, the drug is administered intravenously at one-tenth the oral dosage. De-endothelialization is carried out in the aortas of the anesthetized animals by balloon catheterization. The animals are weighed daily from the time of dosing and their behavior is recorded 3 to 4 hours following administration of the test compound. Fourteen days after catheterization, whole body perfusion fixation is carried out at 37° C. with 3% buffered glutaraldehyde in 0.15 M sodium cacodylate at pH 7.4 under 90-100 millimeters hydrostatic pressure. The aorta is removed, cut into 10 equal segments, and following two additional hours in the buffered glutaraldehyde, is treated with 1% osmium tetroxide, dehydrated, infiltrated with Squer's resin and cured. The segments are stained with Stevenal's blue and basic fuchsin, and the lesion areas is determined with a zeiss standard microscope and Videoplan computerized image analyzer. Please see examples for results.
Male Sprague-Dawley rats weighing 300-360 grams are individually ear tagged, housed and allowed to acclimate for two weeks prior to the start of the test. A constant formula rodent lab chow from Ralston Purina and water are available to the animals ad libitum.
For two days prior to de-endothelialization and for 14 days after, pizotyline at a dose of 25 milligrams per kilogram and placebo are administered by gavage in physiological saline to nine drug animals and 19 control animals. All animals are dosed between 8:00 and 10:00 A.M. daily. […] The animals are weighed daily at the time of dosing and behavior for each animal is recorded three to four hours after dosing. […]
On the day of de-endothelialization, the animals are anesthetized by ether inhalation and catheterization is carried out by the following procedure. […] The catheter balloon tip is advanced cephaled to the aortic arch region as determined through external catheter demarcations and inflated to a pre-established maximum diameter with approximately 900 mm Hg air pressure. […]

[3] = tested on: Smooth muscle cells; assay: 3H-thymidine incorporation into smooth muscle cells (Example 3, Table III); format: cell-based; details: for effect on 3H-thymidine incorporation / response to serotonin: cyproheptadine 10^-7 M, similar = as with cyproheptadine; for CPM/Well (3H-thymidine incorporation): about 36 h, mean ± SEM, n = 4; for % Increase (3H-thymidine incorporation): versus control
Procedure: In this experiment, stimulation of ^3 H-thymidine incorporation is used as an index of the ability of a compound to promote smooth muscle cell proliferation. Smooth muscle cells are seeded in 96 well Linbro racks (5 mm diameter/well) and allowed to grow for 72 hours. […] After approximately 36 hours, the cells are washed with saline, fixed with 10% TCA, washed with water, lysed with 1% SDS, and the lysate counted for ^3 H. This procedure allows the investigator to assess the amount of ^3 H-thymidine taken up by smooth muscle cells and incorporated into DNA.

[4] = tested on: Smooth muscle cells (BASMC); assay: Smooth muscle cell number, 96 h incubation with serotonin, PDGF or serotonin receptor blocker (Example 2, Table II); format: cell-based, bovine; details: for effect on serotonin-induced increase in smooth muscle cell number / Cell Number/Plate: 96 h, 2.5% platelet-poor plasma; for effect on serotonin-induced increase in smooth muscle cell number: similar = as with cyproheptadine; for Cell Number/Plate: mean ± SEM, n = 6
Procedure: Smooth muscle cells are grown from explants of bovine aortic media as described by Coughlin, et al (Platelet-Dependent Stimulation of Prostacyclin Synthesis by Platelet Derived Growth Factor, Nature, 288, pp. 600-602, 1980). Cells are seeded at 10^5 cells per 35 mm tissue culture well in Dulbecco's Modified Eagle Medium containing 10% calf serum and allowed to grow for 24 hours. The serum-containing medium is then removed and the cells are allowed to become quiescent in Medium 199 for 24 hours. The quiescent cultures are then incubated for 72 hours in Medium 199, with or without the mitogen to be tested. After the 72-hour incubation period, the cells are harvested for cell-number determination by Coulter Counter.
Smooth muscle cells are seeded and made quiescent as described in Example 1. Cultures are then treated with serotonin, PDGF or cyproheptadine, a serotonin receptor blocker. The cultures are then incubated for 96 hours in Medium 199 containing 2.5% platelet-poor plasma and the treatment to be tested.

[5] = tested on: Smooth muscle cells (explants of bovine aortic media); assay: Smooth muscle cell number, 72 h incubation with mitogen (Example 1, Table I); format: cell-based; details: for Cell Number/Plate: 72 h, mean ± SEM, n = 6; for smooth muscle proliferation in cell culture: with and without 2% human platelet-poor plasma
Procedure: After the 72-hour incubation period, the cells are harvested for cell-number determination by Coulter Counter.

[6] = tested on: Smooth muscle cells (explants of bovine aortic media); details: shown by others; cited from earlier work

## COC(=O)[C@H]1[C@H]2C[C@@H]3c4[nH]c5cc(OC)ccc5c4CCN3C[C@H]2C[C@@H](OC(=O)c2cc(OC)c(OC)c(OC)c2)[C@@H]1OC [Reserpine]
[1]
  Specific Activity for smooth muscle cell DNA, repeat test: 68 % of control

## CN1CCC(=C2c3ccccc3CCc3sccc32)CC1 [Pizotyline, 4-[1-methyl-4-piperidylidene]-9,10-dihydro-4H-benzo[4,5]cyclohepta[1,2-b]thiophene]
[1]; b.i.d.
  inhibition of injury-induced smooth muscle cell proliferation: remarkably effective
[2]; abdominal, 2 days before and 14 days after, normalized to 1,000 μm length, control 60,310.3
  Mean Lesion Area, Abdominal: 27,135.4 Square Microns
[2]; abdominal, compared to control
  reduction of lesion formation, abdominal segments: 55%
[2]; thoracic, 2 days before and 14 days after, normalized to 1,000 μm length, control 50,283.1
  Mean Lesion Area, Thoracic: 11,834.8 Square Microns
[2]; thoracic, compared to control lesion areas
  mean reduction of lesion formation, thoracic segments: 77%

## CSc1ccc2c(c1)C(N1CCN(C)CC1)Cc1ccccc1S2 (centres unmarked) [Methiothepin]
[1]; b.i.d.
  inhibition of injury-induced smooth muscle cell proliferation: marked inhibition; also recorded: remarkably effective
[1]; methiothepin 0.3 mg/kg
  dose dependent Specific Activity, methiothepin: 51
[1]; methiothepin 1.0 mg/kg
  dose dependent Specific Activity, methiothepin: 24
[1]; methiothepin 3.0 mg/kg
  dose dependent Specific Activity, methiothepin: 23
[1]; methiothepin 10 mg/kg i.p., b.i.d., control 91.6 ± 13.7, mean ± standard error (N = 6)
  Specific Activity of aortic smooth muscle cell DNA: 18.1 ± 5.3 CPM/ugDNA
[1]; methiothepin 10.0 mg/kg
  dose dependent Specific Activity, methiothepin: 20
[1]
  Specific Activity for smooth muscle cell DNA, repeat test: 23 % of control

## NCCc1c[nH]c2ccc(O)cc12 [Serotonin]
[1]; b.i.d.
  inhibition of injury-induced smooth muscle cell proliferation: important in mediating smooth muscle cell proliferation after vascular injury
[3]; PDGF 1 ng/ml
  effect on 3H-thymidine incorporation / response to serotonin: stimulates smooth muscle cell proliferation
[3]; serotonin 10^-6 M
  CPM/Well (3H-thymidine incorporation): 306.4 ± 3.1 CPM/Well (×10^-3)
  % Increase (3H-thymidine incorporation): 240%
[3]; serotonin 10^-7 M
  CPM/Well (3H-thymidine incorporation): 139.8 ± 11.9 CPM/Well (×10^-3)
  % Increase (3H-thymidine incorporation): 55%
[4]
  effect on serotonin-induced increase in smooth muscle cell number: increases the number of smooth muscle cells
[4]; serotonin 10^-5 M
  Cell Number/Plate: 7.68 ± 0.12 ×10^-5
[4]; serotonin 10^-5 M, relative to 10% Fetal Calf Serum = 100
  % Maximum: 33%
[5]; No Plasma, serotonin 10^-5 M
  Cell Number/Plate: 8.34 ± 0.43 ×10^-5
[5]; Plasma (2% human platelet-poor plasma), serotonin 10^-5 M
  Cell Number/Plate: 12.19 ± 0.13 ×10^-5
[5]
  smooth muscle proliferation in cell culture: more smooth muscle cells are present; also recorded: potent promoter of smooth muscle proliferation

## PDGF
[3]; PDGF 1 ng/ml
  CPM/Well (3H-thymidine incorporation): 454.7 ± 28.3 CPM/Well (×10^-3)
  % Increase (3H-thymidine incorporation): 405%
  effect on 3H-thymidine incorporation / response to serotonin: increase thymidine incorporation
[4]; PDGF 0.5 ng/ml, alone or with serotonin / cyproheptadine as in label
  Cell Number/Plate: 8.11 ± 0.23 ×10^-5
[4]; PDGF 0.5 ng/ml, alone or with serotonin / cyproheptadine as in label, relative to 10% Fetal Calf Serum
  % Maximum: 39%
[4]; PDGF 4.0 ng/ml, alone or with serotonin / cyproheptadine as in label
  Cell Number/Plate: 10.66 ± 0.16 ×10^-5
[4]; PDGF 4.0 ng/ml, alone or with serotonin / cyproheptadine as in label, relative to 10% Fetal Calf Serum
  % Maximum: 72%
[5]; No Plasma, PDGF 8 ng/ml
  Cell Number/Plate: 9.65 ± 0.29 ×10^-5
[5]; Plasma (2% human platelet-poor plasma), PDGF 8 ng/ml
  Cell Number/Plate: 14.24 ± 0.04 ×10^-5
[5]
  smooth muscle proliferation in cell culture: active
[6]
  mitogen for smooth muscle cells: mitogen for smooth muscle cells

## CN1CCC(=C2c3ccccc3C=Cc3ccccc32)CC1 [Cyproheptadine]
[3]; PDGF 1 ng/ml
  effect on 3H-thymidine incorporation / response to serotonin: attenuates this response to serotonin
[4]
  effect on serotonin-induced increase in smooth muscle cell number: attenuated
